Source: US12281095B2, “Pesticidally active diazine-amide compounds” (SYNGENTA CROP PROTECTION AG, priority 2019, dated 2025)

Legend:
Assay type in all cases: in vivo
[1] = test system: Diabrotica balteata (Corn Root Worm); assay: Example B1: Diabrotica balteata (Corn Root Worm), sprayed maize sprouts; settings: 96 h, application rate of 200 ppm, L2 larvae, 4 days after infestation, read-out: control in at least one of the two categories (mortality or growth inhibition)
Protocol: Example B1: Diabrotica balteata (Corn Root Worm)
Maize sprouts placed onto an agar layer in 24-well microtiter plates were treated with aqueous test solutions prepared from 10′000 ppm DMSO stock solutions by spraying. After drying, the plates were infested with L2 larvae (6 to 10 per well). The samples were assessed for mortality and growth inhibition in comparison to untreated samples 4 days after infestation.

[2] = test system: Chilo suppressalis (Striped Rice Stemborer); assay: Example B4: Chilo suppressalis (Striped Rice Stemborer), artificial diet; settings: 144 h, application rate of 200 ppm, L2 larvae, 6 days after infestation, read-out: control in at least one of the three categories (mortality, anti-feedant or growth inhibition)
Protocol: Example B4: Chilo suppressalis (Striped Rice Stemborer)
24-well microtiter plates with artificial diet were treated with aqueous test solutions prepared from 10′000 ppm DMSO stock solutions by pipetting. After drying, the plates were infested with L2 larvae (6-8 per well). The samples were assessed for mortality, anti-feeding effect, and growth inhibition in comparison to untreated samples 6 days after infestation. Control of Chilo suppressalis by a test sample is given when at least one of the categories mortality, anti-feedant effect, and growth inhibition is higher than the untreated sample.

[3] = test system: Plutella xylostella (Diamond Back Moth); assay: Example B5: Plutella xylostella (Diamond Back Moth), artificial diet, 24-well; settings: 192 h, application rate of 200 ppm, eggs, 8 days after infestation, read-out: control in at least one of the two categories (mortality or growth inhibition)
Protocol: Example B5: Plutella xylostella (Diamond Back Moth)
24-well microtiter plates with artificial diet were treated with aqueous test solutions prepared from 10′000 ppm DMSO stock solutions by pipetting. After drying, Plutella eggs were pipetted through a plastic stencil onto a gel blotting paper and the plate was closed with it. The samples were assessed for mortality and growth inhibition in comparison to untreated samples 8 days after infestation.

[4] = test system: Spodoptera littoralis (Egyptian Cotton Leaf Worm); assay: Example B9: Spodoptera littoralis (Egyptian Cotton Leaf Worm), sprayed cotton leaf discs; settings: foliar, 72 h, application rate of 200 ppm, L1 larvae, 3 days after infestation, read-out: control in at least one of the three categories (mortality, anti-feedant or growth inhibition)
[5] = test system: Plutella xylostella (Diamondback Moth); assay: Example B13: Plutella xylostella (Diamondback Moth), artificial diet, 96-well; settings: 216 h, application rate of 500 ppm, eggs/L1 larvae, 9 days after infestation
Protocol: Example B13: Plutella xylostella (Diamondback Moth)
96-well microtiter plates containing artificial diet were treated with aqueous test solutions, prepared from 10′000 ppm DMSO stock solutions, by a liquid handling robot. After drying, eggs (˜30 per well) were infested onto a netted lid which was suspended above the diet. The eggs hatch and L1 larvae move down to the diet. The samples were assessed for mortality 9 days after infestation.

CC(NC(=O)c1cc(C(F)(F)F)cc(S(=O)(=O)C(F)(F)F)c1)c1nccnc1-c1ncc(OC(F)F)cn1 (centres unmarked) [P19, N-[1-[3-[5-(difluoromethoxy)pyrimidin-2-yl]pyrazin-2-yl]ethyl]-3-(trifluoromethyl)-5-(trifluoromethylsulfonyl)benzamide]
≥ 80%: percent control (mortality or growth inhibition) at 200 ppm [1] | percent control (mortality, anti-feedant effect or growth inhibition) at 200 ppm [2] | percent control (mortality or growth inhibition) at 200 ppm [3] | percent control (mortality, anti-feedant effect or growth inhibition) at 200 ppm [4] | mortality at 500 ppm [5]

CC(NC(=O)c1cc(C2CC2C(F)(F)F)cc(C(F)(F)F)c1)c1nccnc1-c1ncc(OCC(F)F)cn1 (centres unmarked) [P38, N-[1-[3-[5-(2,2-difluoroethoxy)pyrimidin-2-yl]pyrazin-2-yl]ethyl]-3-(trifluoromethyl)-5-[2-(trifluoromethyl)cyclopropyl]benza-mide]
≥ 80%: percent control (mortality or growth inhibition) at 200 ppm [1] | percent control (mortality, anti-feedant effect or growth inhibition) at 200 ppm [2] | percent control (mortality or growth inhibition) at 200 ppm [3] | percent control (mortality, anti-feedant effect or growth inhibition) at 200 ppm [4] | mortality at 500 ppm [5]

CC(NC(=O)c1cc(C2CC2)cc(C(F)(F)F)c1)c1nccnc1-c1ncc(OCC(F)(F)F)cn1 (centres unmarked) [P6, 3-cyclopropyl-N-[1-[3-[5-(2,2,2-trifluoroethoxy)pyrimidin-2-yl]pyrazin-2-yl]ethyl]-5-(trifluoromethyl)benzamide]
≥ 80%: percent control (mortality or growth inhibition) at 200 ppm [1] | percent control (mortality, anti-feedant effect or growth inhibition) at 200 ppm [2] | percent control (mortality or growth inhibition) at 200 ppm [3] | percent control (mortality, anti-feedant effect or growth inhibition) at 200 ppm [4]

CC(NC(=O)c1cc(C(F)(F)F)nc(C2(C#N)CC2)c1)c1nccnc1-c1ccc(OC(F)F)cn1 (centres unmarked) [P1, 2-(1-cyanocyclopropyl)-N-[1-[3-[5-(difluoromethoxy)-2-pyridyl]pyrazin-2-yl]ethyl]-6-(trifluoromethyl)pyridine-4-carboxamide]
≥ 80%: percent control (mortality or growth inhibition) at 200 ppm [1] | percent control (mortality, anti-feedant effect or growth inhibition) at 200 ppm [2] | percent control (mortality or growth inhibition) at 200 ppm [3] | percent control (mortality, anti-feedant effect or growth inhibition) at 200 ppm [4]

CC(NC(=O)c1cc(C2CC2)cc(C(F)(F)F)c1)c1nccnc1-c1ccc(OC(F)F)cn1 (centres unmarked) [P7, 3-cyclopropyl-N-[1-[3-[5-(difluoromethoxy)-2-pyridyl]pyrazin-2-yl]ethyl]-5-(trifluoromethyl)benzamide]
≥ 80%: percent control (mortality or growth inhibition) at 200 ppm [1] | percent control (mortality, anti-feedant effect or growth inhibition) at 200 ppm [2] | percent control (mortality or growth inhibition) at 200 ppm [3] | percent control (mortality, anti-feedant effect or growth inhibition) at 200 ppm [4]

CC(NC(=O)c1cc(C(F)(F)F)cc(C(C)(C)C#N)c1)c1nccnc1-c1ccc(OC(F)F)cn1 (centres unmarked) [P13, 3-(1-cyano-1-methyl-ethyl)-N-[1-[3-[5-(difluoromethoxy)-2-pyridyl]pyrazin-2-yl]ethyl]-5-(trifluoromethyl)benzamide]
≥ 80%: percent control (mortality or growth inhibition) at 200 ppm [1] | percent control (mortality, anti-feedant effect or growth inhibition) at 200 ppm [2] | percent control (mortality or growth inhibition) at 200 ppm [3] | percent control (mortality, anti-feedant effect or growth inhibition) at 200 ppm [4]

C[C@H](NC(=O)c1cc(C(F)(F)F)cc(C(F)(F)C2CC2)c1)c1nccnc1-c1ccc(C#N)cn1 [P42, N-[(1S)-1-[3-(5-cyano-2-pyridyl)pyrazin-2-yl]ethyl]-3-[cyclopropyl(difluoro)methyl]-5-(trifluoromethyl)benzamide]
≥ 80%: percent control (mortality or growth inhibition) at 200 ppm [1] | percent control (mortality, anti-feedant effect or growth inhibition) at 200 ppm [2] | percent control (mortality or growth inhibition) at 200 ppm [3] | percent control (mortality, anti-feedant effect or growth inhibition) at 200 ppm [4]

CC(NC(=O)c1cc(C(F)(F)F)cc(C2(C#N)CC2)c1)c1nccnc1-c1ccc(OC(F)F)cn1 (centres unmarked) [P3, 3-(1-cyanocyclopropyl)-N-[1-[3-[5-(difluoromethoxy)-2-pyridyl]pyrazin-2-yl]ethyl]-5-(trifluoromethyl)benzamide]
≥ 80%: percent control (mortality or growth inhibition) at 200 ppm [1] | percent control (mortality, anti-feedant effect or growth inhibition) at 200 ppm [2] | percent control (mortality or growth inhibition) at 200 ppm [3] | percent control (mortality, anti-feedant effect or growth inhibition) at 200 ppm [4]

CC(NC(=O)c1cc(C(F)(F)F)cc(C(F)(F)C2CC2)c1)c1nccnc1-c1ncc(OCC(F)F)cn1 (centres unmarked) [P39, 3-[cyclopropyl(difluoro)methyl]-N-[1-[3-[5-(2,2-difluoroethoxy)pyrimidin-2-yl]pyrazin-2-yl]ethyl]-5-(trifluoromethyl)benzamide]
≥ 80%: percent control (mortality, anti-feedant effect or growth inhibition) at 200 ppm [2] | percent control (mortality or growth inhibition) at 200 ppm [3] | percent control (mortality, anti-feedant effect or growth inhibition) at 200 ppm [4] | mortality at 500 ppm [5]

CC(NC(=O)c1cc(C2CC2)cc(C(F)(F)F)c1)c1nccnc1-c1ccc(OCC(F)F)cn1 (centres unmarked) [P26, 3-cyclopropyl-N-[1-[3-[5-(2,2-difluoroethoxy)-2-pyridyl]pyrazin-2-yl]ethyl]-5-(trifluoromethyl)benzamide]
≥ 80%: percent control (mortality, anti-feedant effect or growth inhibition) at 200 ppm [2] | percent control (mortality or growth inhibition) at 200 ppm [3] | percent control (mortality, anti-feedant effect or growth inhibition) at 200 ppm [4] | mortality at 500 ppm [5]

CC(NC(=O)c1cc(C(F)(F)F)cc(S(=O)(=O)C(F)(F)F)c1)c1nccnc1-c1ccc(OCC(F)F)cn1 (centres unmarked) [P20, N-[1-[3-[5-(2,2-difluoroethoxy)-2-pyridyl]pyrazin-2-yl]ethyl]-3-(trifluoromethyl)-5-(trifluoromethylsulfonyl)benzamide]
≥ 80%: percent control (mortality, anti-feedant effect or growth inhibition) at 200 ppm [2] | mortality at 500 ppm [5]

CC(NC(=O)c1cc(C2CC2)cc(C(F)(F)F)c1)c1nccnc1-c1ccc(OCC(F)(F)F)cn1 (centres unmarked) [P27, 3-cyclopropyl-N-[1-[3-[5-(2,2,2-trifluoroethoxy)-2-pyridyl]pyrazin-2-yl]ethyl]-5-(trifluoromethyl)benzamide]
≥ 80%: percent control (mortality or growth inhibition) at 200 ppm [1] | percent control (mortality, anti-feedant effect or growth inhibition) at 200 ppm [2] | percent control (mortality or growth inhibition) at 200 ppm [3] | mortality at 500 ppm [5]

CC(NC(=O)c1cc(C(F)(F)F)cc(C(F)(F)C2CC2)c1)c1nccnc1-c1ccc(OCC(F)(F)F)cn1 (centres unmarked) [P31, 3-[cyclopropyl(difluoro)methyl]-N-[1-[3-[5-(2,2,2-trifluoroethoxy)-2-pyridyl]pyrazin-2-yl]ethyl]-5-(trifluoromethyl)benzamide]
≥ 80%: mortality at 500 ppm [5]

CC(NC(=O)c1cc(C(F)(F)F)cc(C(F)(F)C2CC2)c1)c1nccnc1-c1ncc(OCC(F)(F)F)cn1 (centres unmarked) [P4, 3-[cyclopropyl(difluoro)methyl]-N-[1-[3-[5-(2,2,2-trifluoroethoxy)pyrimidin-2-yl]pyrazin-2-yl]ethyl]-5-(trifluoromethyl)benzamide]
≥ 80%: percent control (mortality or growth inhibition) at 200 ppm [1] | percent control (mortality, anti-feedant effect or growth inhibition) at 200 ppm [2] | percent control (mortality or growth inhibition) at 200 ppm [3] | percent control (mortality, anti-feedant effect or growth inhibition) at 200 ppm [4]
